# Results from PMC6858373 (Scientific Reports, 2019).
# Read-outs that look alike come from different tables or passages of the source.
# What was measured:
# Clone V cells = conditions: for Toxicity Assay % Fluor / Toxicity Assay Z-score: human, 16 h, 30 µM
# [1] = molecular target: T1, FGF14:Nav1.6 C-tail complex (Homo sapiens, UniProt Q92915+Q9UQD0); assay: Split-luciferase complementation assay (LCA) in Clone V double stable HEK293 cells; assay type: cell-based; conditions: for Z-score (LCA primary screening): 30 µM, average of primary screening (n = 2), vs on-plate 0.3% DMSO; for Z-score (LCA primary screening) / EMax (% Luminescence) / IMin (% Luminescence): 384-well; for EMax (% Luminescence): agonists; for EMax (% Luminescence) / IMin (% Luminescence): normalized to DMSO; for EC50: read-out: EC50; for IMin (% Luminescence): antagonists
# T1 construct: polymerase chain reaction (PCR) amplification of the FGF14 open reading frame (nt 1–855); C-terminal fragment of Nav1.6 (amino acids 1763–1976) fused with CD4ΔC-tail (amino acids 1–395); expressed in transfected cells
# [2] = molecular target: full-length P. pyralis luciferase (Photinus pyralis, UniProt P08659, K549A/L550V/N119G/N50D/S548I); assay type: cell-based
# [3] = CC_NCI screening, LCA luminescence, biological replicate Set 1, normalized to on-plate 0.3% DMSO controls (n=16 per plate)
# [4] = CC_NCI screening, LCA luminescence, biological replicate Set 2, normalized to on-plate 0.3% DMSO controls (n=16 per plate)
# [5] = CC_NCI screening, LCA, biological replicate Set 1, normalized to on-plate 0.3% DMSO controls
# [6] = CC_NCI screening, LCA, biological replicate Set 2, normalized to on-plate 0.3% DMSO controls
# [7] = CC_NCI screening, average of Set 1 and Set 2, normalized to 0.3% DMSO controls
# [8] = CC_NCI screening, full-length luciferase counter-screen luminescence, normalized to on-plate 0.3% DMSO controls
# [9] = CC_NCI screening, full-length luciferase counter-screen, normalized to on-plate 0.3% DMSO controls
# [10] = CC_NCI screening, normalized to on-plate 0.3% DMSO controls
# [11] = estimated, 8-point dose response 0.25-30 µM, n = 4 per concentration, library compounds
# [12] = estimated, 8-point dose response 0.25-30 µM, n = 4 per concentration, library compounds, read-out: IC50
# [13] = CC_NCI screening, biological replicate Set 1, normalized to on-plate 0.3% DMSO controls
# [14] = CC_NCI screening, biological replicate Set 1, normalized to on-plate 0.3% DMSO controls (n=16 per plate)
# [15] = CC_NCI screening, biological replicate Set 2, normalized to on-plate 0.3% DMSO controls
# [16] = CC_NCI screening, biological replicate Set 2, normalized to on-plate 0.3% DMSO controls (n=16 per plate)
# [17] = average of Set 1 and Set 2, normalized to 0.3% DMSO controls
# Sequence of full-length P. pyralis luciferase (P08659 whole entry N50D/N119G/S548I/K549A/L550V, looked up): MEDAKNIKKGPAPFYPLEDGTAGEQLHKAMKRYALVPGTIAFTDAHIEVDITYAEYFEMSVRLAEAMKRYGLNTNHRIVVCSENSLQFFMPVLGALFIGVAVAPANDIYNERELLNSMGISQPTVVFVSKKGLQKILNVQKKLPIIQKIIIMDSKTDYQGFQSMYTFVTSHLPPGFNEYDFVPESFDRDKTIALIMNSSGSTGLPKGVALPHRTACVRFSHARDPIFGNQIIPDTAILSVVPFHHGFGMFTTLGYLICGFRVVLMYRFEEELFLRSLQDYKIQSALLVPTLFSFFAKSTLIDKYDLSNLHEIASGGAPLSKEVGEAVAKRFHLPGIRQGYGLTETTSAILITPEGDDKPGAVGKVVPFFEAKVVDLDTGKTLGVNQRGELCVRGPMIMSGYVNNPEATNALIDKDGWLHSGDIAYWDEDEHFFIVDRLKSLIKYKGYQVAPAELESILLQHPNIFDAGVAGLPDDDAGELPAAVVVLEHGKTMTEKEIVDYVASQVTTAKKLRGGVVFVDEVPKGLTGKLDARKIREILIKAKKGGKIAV
# T1 sequence (Q92915 1-252 isoform Q92915-2): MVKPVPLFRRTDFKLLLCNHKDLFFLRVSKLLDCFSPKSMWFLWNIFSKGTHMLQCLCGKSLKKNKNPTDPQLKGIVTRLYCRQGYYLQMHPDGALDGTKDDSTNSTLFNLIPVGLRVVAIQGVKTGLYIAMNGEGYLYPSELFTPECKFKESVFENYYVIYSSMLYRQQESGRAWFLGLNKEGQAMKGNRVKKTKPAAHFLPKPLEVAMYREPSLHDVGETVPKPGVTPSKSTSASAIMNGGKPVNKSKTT
# T1 sequence (Q9UQD0 1763-1976 limits assumed): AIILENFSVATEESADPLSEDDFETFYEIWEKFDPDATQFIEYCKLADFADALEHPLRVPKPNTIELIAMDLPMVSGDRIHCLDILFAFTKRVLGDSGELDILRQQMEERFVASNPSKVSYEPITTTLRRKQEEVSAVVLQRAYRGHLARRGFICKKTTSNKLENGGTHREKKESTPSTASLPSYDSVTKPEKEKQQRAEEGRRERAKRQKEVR
compound,measurement,setting,value
Cc1[nH]c(/C=C2\C(=O)Nc3ccc(S(=O)(=O)N(C)c4cccc(Cl)c4)cc32)c(C)c1C(=O)N1CCN(C)CC1 [SU 11274],Toxicity Assay % Fluor,Clone V cells,97.70%
same,Toxicity Assay Z-score,Clone V cells,-0.32
same,Split Luciferase Assay % Lum Set 1,[1]; [3],81.86%
same,Split Luciferase Assay %Lum Set 2,[1]; [4],81.14%
same,Split Luciferase Assay Z-score Set 1,[1]; [5],-1.47
same,Split Luciferase Assay Z-score Set 2,[1]; [6],-1.53
same,Split Luciferase Assay %Lum Avg,[1]; [7],81.50%
same,Luciferase Assay % Lum,[2]; [8],85.15%
same,Luciferase Assay Z-score,[2]; [9],-1.90
CCN(CC)CCNC(=O)c1c(C)[nH]c(/C=C2\C(=O)Nc3ccc(F)cc32)c1C [Sunitinib],Split Luciferase Assay % Lum Set 1,[1]; [3],68.81%
same,Split Luciferase Assay %Lum Set 2,[1]; [4],72.82%
same,Split Luciferase Assay Z-score Set 1,[1]; [5],-2.52
same,Split Luciferase Assay Z-score Set 2,[1]; [6],-2.21
same,Split Luciferase Assay %Lum Avg,[1]; [7],70.82%
same,Luciferase Assay % Lum,[2]; [8],95.10%
same,Luciferase Assay Z-score,[2]; [9],-0.63
N.N.[Cl][Pt][Cl] [Cisplatin],Split Luciferase Assay % Lum Set 1,[1]; [3],89.47%
same,Split Luciferase Assay %Lum Set 2,[1]; [4],98.83%
same,Split Luciferase Assay Z-score Set 1,[1]; [5],-0.85
same,Split Luciferase Assay Z-score Set 2,[1]; [6],-0.10
same,Split Luciferase Assay %Lum Avg,[1]; [7],94.15%
same,Luciferase Assay % Lum,[2]; [8],99.37%
same,Luciferase Assay Z-score,[2]; [9],-0.08
CS(=O)(=O)N1CCN(Cc2cc3nc(-c4cccc5[nH]ncc45)nc(N4CCOCC4)c3s2)CC1 [GDC 0941],Luciferase Assay % Lum (full-length luciferase counter-screen),[2]; [10],84.36%
same,Luciferase Assay Z-score (full-length luciferase counter-screen),[2]; [10],-2.00
Cc1ccc(NC(=O)c2ccc(CN3CCN(C)CC3)cc2)cc1Nc1nccc(-c2cccnc2)n1 [Imatinib],Luciferase Assay % Lum,[2],90.17%
same,Luciferase Assay Z-score,[2],-1.26
"CCC1=C[C@@H]2CN(C1)Cc1c([nH]c3ccccc13)[C@@](C(=O)OC)(c1cc3c(cc1OC)N(C)[C@H]1[C@@](O)(C(=O)OC)[C@H](OC(C)=O)[C@]4(CC)C=CCN5CC[C@]31[C@@H]54)C2 [Vinorelbine, reference compound]",Z-score (LCA primary screening),[1],8.79
same,EMax (% Luminescence),[1]; Clone V cells,208.53 % Luminescence
same,EC50,[1]; [11],1.55 µM
"CC[C@]1(O)C[C@@H]2CN(CCc3c([nH]c4ccccc34)[C@@](C(=O)OC)(c3cc4c(cc3OC)N(C)[C@H]3[C@@](O)(C(=O)OC)[C@H](OC(C)=O)[C@]5(CC)C=CCN6CC[C@]43[C@@H]65)C2)C1 [Vinblastine, reference compound]",Z-score (LCA primary screening),[1],7.42
same,EMax (% Luminescence),[1]; Clone V cells,191.58 % Luminescence
same,EC50,[1]; [11],20.6 µM
"CCn1c(-c2nonc2N)nc2cnc(Oc3cccc(NC(=O)c4ccc(OCCN5CCOCC5)cc4)c3)cc21 [GSK 269962 A, reference compound]",Z-score (LCA primary screening),[1],−5.77
same,IMin (% Luminescence),[1]; Clone V cells,28.81 % Luminescence
same,IC50,[1]; [12],24.7 µM
"CC[C@]1(O)C[C@H]2CN(CCc3c([nH]c4ccccc34)[C@@](C(=O)OC)(c3cc4c(cc3OC)N(C=O)[C@H]3[C@@](O)(C(=O)OC)[C@H](OC(C)=O)[C@]5(CC)C=CCN6CC[C@]43[C@@H]65)C2)C1 [Vincristine, reference compound]",Z-score (LCA primary screening),[1],7.99
same,EMax (% Luminescence),[1]; Clone V cells,198.49 % Luminescence
same,EC50,[1]; [11],0.27 µM
"O=[N+]([O-])/C=C/c1ccc2c(c1)OCO2 [MNS, reference compound]",IC50,"[1]; 384-well plates, range 0.625 - 25 μM, n=16 per concentration (Supplementary Fig. S1A), read-out: Estimated IC50",13.3 µM
same,% luminescence (normalized mean and SD),"[1]; MNS 30 µM, Clone V cells, 96-well plates",10.8% ± 3.1%
same,IC50,"[1]; cell density 1 × 10^4 cells per 384-well, 8 concentrations 0.625-30 µM, read-out: IC50",3.96 µM
same,IC50,"[1]; cell density 2 × 10^4 cells per 384-well, 8 concentrations 0.625-30 µM, read-out: IC50",7.49 µM
same,IC50,"[1]; cell density 3 × 10^4 cells per 384-well, 8 concentrations 0.625-30 µM, read-out: IC50",9.82 µM
same,IC50,"[1]; cell density 4 × 10^4 cells per 384-well, 8 concentrations 0.625-30 µM, read-out: IC50",13.3 µM
same,"% maximal luminescence, full-length luciferase (normalized mean and SD)","[2]; MNS 30 µM, 96-well plates",96.8% ± 2.8%
O=c1cc(N2CCOCC2)nc2c3ccccc3ccn12 [COMPOUND 401],Split Luciferase Assay Z-score Set 1,[1]; [13],-0.15
same,Split Luciferase Assay % Lum Set 1,[1]; [14],98.17%
same,Split Luciferase Assay Z-score Set 2,[1]; [15],-0.43
same,Split Luciferase Assay %Lum Set 2,[1]; [16],94.67%
same,Split Luciferase Assay %Lum Avg,[1]; [17],96.42%
same,Luciferase Assay % Lum (full-length luciferase counter-screen),[2]; [10],93.50%
same,Luciferase Assay Z-score (full-length luciferase counter-screen),[2]; [10],-0.83
Plicamycin,Split Luciferase Assay Z-score Set 1,[1]; [13],-1.20
same,Split Luciferase Assay % Lum Set 1,[1]; [14],85.12%
same,Split Luciferase Assay Z-score Set 2,[1]; [15],-1.11
same,Split Luciferase Assay %Lum Set 2,[1]; [16],86.35%
same,Split Luciferase Assay %Lum Avg,[1]; [17],85.73%
same,Luciferase Assay % Lum (full-length luciferase counter-screen),[2]; [10],92.59%
same,Luciferase Assay Z-score (full-length luciferase counter-screen),[2]; [10],-0.95
CCc1c2c(nc3ccc(OC(=O)N4CCC(N5CCCCC5)CC4)cc13)-c1cc3c(c(=O)n1C2)COC(=O)[C@]3(O)CC.Cl [Irinotecan hydrochloride],Luciferase Assay % Lum,[2]; [8],96.04%
same,Luciferase Assay Z-score,[2]; [9],-0.51
Oc1ncc(N(CCCl)CCCl)c(O)n1 [Uracil mustard],Split Luciferase Assay % Lum Set 1,[1],76.42%
same,Split Luciferase Assay %Lum Avg,[1],74.62%
same,Split Luciferase Assay %Lum Set 2,[1],72.82%
same,Split Luciferase Assay Z-score Set 1,[1],-1.91
same,Split Luciferase Assay Z-score Set 2,[1],-2.21
same,Luciferase Assay % Lum,[2],97.98%
same,Luciferase Assay Z-score,[2],-0.26
NC(=O)c1ccc2nc(-c3ccc(Oc4ccc(Cl)cc4)cc3)[nH]c2c1 [CHK2 INHIBITOR II],Toxicity Assay % Fluor (CTB cell viability fluorescence),Clone V cells,112.91%
same,Toxicity Assay Z-score (CTB cell viability),Clone V cells,1.80
O=C(NOC[C@H](O)CO)c1ccc(F)c(F)c1Nc1ccc(I)cc1F [PD 0325901],Toxicity Assay % Fluor,Clone V cells,83.92%
same,Toxicity Assay Z-score,Clone V cells,-2.25
COc1cc2c(N3CCN(C(=O)Nc4ccc(OC(C)C)cc4)CC3)ncnc2cc1OCCCN1CCCCC1 [TANDUTINIB],Split Luciferase Assay % Lum Set 1,[1]; [3],92.73%
same,Split Luciferase Assay %Lum Set 2,[1]; [4],92.59%
same,Split Luciferase Assay Z-score Set 1,[1]; [5],-0.59
same,Split Luciferase Assay Z-score Set 2,[1]; [6],-0.60
same,Split Luciferase Assay %Lum Avg,[1]; [7],92.66%
same,Luciferase Assay % Lum,[2]; [8],88.98%
same,Luciferase Assay Z-score,[2]; [9],-1.41
"CNC(=O)c1cc(Oc2ccc(NC(=O)Nc3ccc(Cl)c(C(F)(F)F)c3)cc2)ccn1 [Sorafenib, reference compound]",Z-score (LCA primary screening),[1],−7.62
same,Split Luciferase Assay % Lum Set 1,[1]; [3],5.76%
same,Split Luciferase Assay % Lum Set 1,"[1]; CC_NCI screening, LCA luminescence, biological replicate Set 1, normalized to on-plate 0.3% DMSO controls (n=16 per plate), listed as SORAFENIB",4.67%
same,Split Luciferase Assay %Lum Set 2,[1]; [4],15.60%
same,Split Luciferase Assay %Lum Set 2,"[1]; CC_NCI screening, LCA luminescence, biological replicate Set 2, normalized to on-plate 0.3% DMSO controls (n=16 per plate), listed as SORAFENIB",7.28%
same,Split Luciferase Assay Z-score Set 1,[1]; [5],-7.62
same,Split Luciferase Assay Z-score Set 1,"[1]; CC_NCI screening, LCA, biological replicate Set 1, normalized to on-plate 0.3% DMSO controls, listed as SORAFENIB",-7.70
same,Split Luciferase Assay Z-score Set 2,[1]; [6],-6.87
same,Split Luciferase Assay Z-score Set 2,"[1]; CC_NCI screening, LCA, biological replicate Set 2, normalized to on-plate 0.3% DMSO controls, listed as SORAFENIB",-7.54
same,Split Luciferase Assay %Lum Avg,[1]; [7],10.68%
same,Split Luciferase Assay %Lum Avg,"[1]; CC_NCI screening, average of Set 1 and Set 2, normalized to 0.3% DMSO controls, listed as SORAFENIB",5.98%
same,IMin (% Luminescence),[1]; Clone V cells,5.98 % Luminescence
same,IC50,[1]; [12],3.98 µM
same,Luciferase Assay % Lum,[2]; [8],88.55%
same,Luciferase Assay % Lum,"[2]; CC_NCI screening, full-length luciferase counter-screen luminescence, normalized to on-plate 0.3% DMSO controls, listed as SORAFENIB",91.34%
same,Luciferase Assay Z-score,[2]; [9],-1.47
same,Luciferase Assay Z-score,"[2]; CC_NCI screening, full-length luciferase counter-screen, normalized to on-plate 0.3% DMSO controls, listed as SORAFENIB",-1.11
